Experimental data taken from patent US4053478A, “2,5-Di-substituted 4-oxazolealkanoic acids and esters” (Yoshitomi Pharmaceutical Industries, Ltd., priority 1974, dated 1977).

Columns and labels:
[1] = test system: serum cholesterol level; assay: Hypolipidemic action: Triton hyperlipidemia in male mice (Table 3); format: in vivo, dd-strain male mice; details: intraperitoneal, 18 hours after Triton
Experimental: iii. Triton hyperlipidemia in male mice (Table 3) Each group was composed of eight dd-strain male mice weighing 20-25 g. Immediately after intraperitoneal administration of the test compound to the animals, Triton WR-1339 was intraveniously given. Eighteen hours after Triton administration, the serum cholesterol level was measured and compared with that of the control group treated in the same way.

[2] = Acute toxicity, mouse (Table 5); details: in vivo, oral, lethality within two days, read-out: LD50 per os, Mouse
Experimental: (§1) The test compound was orally administered to groups each of 5 male mice and rats respectively. The LD50 was calculated from the lethal rate (50%) within two days after administration of the test compound.

[3] = Acute toxicity, rat (Table 5); details: in vivo, oral, lethality within two days, read-out: LD50 per os, Rat
Experimental: as §1

[4] = test system: bleeding time induced by platelet thrombi; assay: Anti-thrombotic action: bleeding time induced by platelet thrombi, tail vein puncture (Table 4); format: in vivo; details: oral, one hour after administration, male mice
Experimental: The bleeding time induced by platelet thrombi was compared with that of the control group, and the rate of prolongation was calculated as an index of anti-thrombotic activity.

[5] = test system: serum cholesterol and triglyceride levels; assay: Hypolipidemic action: male rats with normal serum lipid (Table 1); format: in vivo, Wistar strain male rats; details: 100 mg/kg/day, oral (gastric tube), 5 days, vs control
Experimental: i. Male rats with normal serum lipid (Table 1)
Each test group was composed of more than 5 rats. The test compound was orally given by a gastric tube. Serum cholesterol and triglyceride levels were measured by the standard methods using an autoanalyzer (Technicon Inc.). The levels in the control (placebo) group were considered as 100% and the reduction (%) in the test group was calculated.

[6] = test system: serum cholesterol level; assay: Hypolipidemic action: dietary hyperlipidemia in male mice (Table 2); format: in vivo, dd-strain male mice; details: 5 days
Experimental: ii. Dietary hyperlipidemia in male mice (Table 2)
dd-Strain male mice weighing 20-25 g. were used. Each group was composed of 8 mice. Animals were fed with NMF food (Oriental Yeast Co., Tokyo) containing 1% of cholesterol, 0.2% of cholic acid and 5% of olive oil, and the serum cholesterol level was measured by the use of an autoanalyzer after 5 days administration of the test compound. The levels in the test group was compared with that in the control group given the same diet.

| Compound | Lowering Rate (%) of Serum Cholesterol Level ([1]; 25 mg/kg/day) | Lowering Rate (%) of Serum Cholesterol Level ([1]; 100 mg/kg/day) | LD50 at 48 h [2] | LD50 at 48 h [3] | Prolongation Rate (%) of the Bleeding Time ([4]; 12.5 mg/kg/day) | Prolongation Rate (%) of the Bleeding Time ([4]; 25 mg/kg/day) | Prolongation Rate (%) of the Bleeding Time ([4]; 50 mg/kg/day) | Prolongation Rate (%) of the Bleeding Time ([4]; 100 mg/kg/day) | Lowering Rate (%) of Serum Cholesterol Level [5] | Lowering Rate (%) of Serum Triglyceride Level [5] | Lowering Rate (%) of Serum Cholesterol Level ([6]; 100 mg/kg/day) | Lowering Rate (%) of Serum Cholesterol Level ([6]; 50 mg/kg/day) | Lowering Rate (%) of Serum Cholesterol Level ([1]; 50 mg/kg/day) |
| --- | --- | --- | --- | --- | --- | --- | --- | --- | --- | --- | --- | --- | --- |
| CCOC(=O)Cc1nc(-c2ccc(Cl)c(Cl)c2)oc1OCC [C, ethyl 2-(3,4-dichlorophenyl)-5-ethoxy-4-oxazoleacetate] | 18% | 35% | 2000 mg/kg | > 4000 mg/kg | – | – | – | – | – | – | – | – | – |
| CCOc1oc(-c2ccncc2)nc1CCC(=O)O [D, 3-[2-(4-pyridyl)-5-ethoxy-4-oxazole]propionic acid] | – | – | > 2000 mg/kg | > 2000 mg/kg | 107% | 209% | 321% | 439% | – | – | – | – | – |
| CC(=O)Oc1ccccc1C(=O)O [Acetylsalicylic Acid, reference compound] | – | – | – | – | 22% | 65% | 268% | – | – | – | – | – | – |
| CCOc1oc(-c2ccc(Cl)cc2)nc1CC(=O)OCc1cccnc1 [B, 3-pyridylmethyl 2-p-chlorophenyl-5-ethoxy-4-oxazoleacetate] | – | – | > 4000 mg/kg | > 4000 mg/kg | – | – | – | – | 22% | 41% | 43% | – | – |
| CCOC(=O)Cc1nc(-c2ccc(Cl)cc2)oc1OCC [Compound A, ethyl 2-p-chlorophenyl-5-ethoxy-4-oxazoleacetate] | – | 32% | 4000 mg/kg | > 4000 mg/kg | – | – | – | – | 25% | 45% | 41% | 21% | 26% |
| CCOC(=O)C(C)(C)Oc1ccc(Cl)cc1 [Clofibrate, reference compound] | – | 10% | 1500 mg/kg | 2300 mg/kg | – | – | – | 38% | 31% | 35% | 16% | 0% | – |
